# Reference: US11278504B1, “Treatment of a lionfish sting and formulations for use thereof” (priority 2019, dated 2022)
# Assays:
# P2X3 receptors = target: T1, P2X3 receptors (Mus musculus, UniProt Q3UR32); format: cell-based
# T1 construct: endogenous in cells; host or cells: primary DRG cultures of TRPV1-Cre::GCaMP6f mice
# T1 sequence (Q3UR32 1-397): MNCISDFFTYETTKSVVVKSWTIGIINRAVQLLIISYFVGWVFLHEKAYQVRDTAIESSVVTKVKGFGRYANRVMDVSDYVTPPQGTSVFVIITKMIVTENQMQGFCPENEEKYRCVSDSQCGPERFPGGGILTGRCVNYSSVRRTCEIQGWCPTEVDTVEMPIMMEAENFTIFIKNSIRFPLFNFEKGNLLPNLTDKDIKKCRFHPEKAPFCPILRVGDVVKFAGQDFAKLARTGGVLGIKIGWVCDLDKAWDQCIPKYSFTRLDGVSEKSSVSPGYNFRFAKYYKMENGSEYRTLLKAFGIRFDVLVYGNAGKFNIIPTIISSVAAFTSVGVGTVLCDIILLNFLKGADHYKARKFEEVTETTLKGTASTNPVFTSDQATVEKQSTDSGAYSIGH
# Procedure: Cre-dependent GCaMP6f mice (Ai95D; Jackson Labs) were crossed with TRPV1-Cre mice to express GCaMP6f in all nociceptors. In TRPV1-Cre::GCaMP6f mice, GCaMP6f expression is not limited to cells that are TRPV1-positive at maturity, because TRPV1 is expressed broadly amongst nociceptors early in development.
# DRG cultures were grown on 35 mm dishes. On the 3rd day, the cultures were treated with complexes of predesigned siRNA molecules directed against mouse P2X3 or a non-targeting control siRNA (Qiagen FlexiTube siRNA final concentration 100 nM) and 2 ul of HiPerFect transfection reagent. The cells were incubated with the transfection complexes for 48 to 72 hours with addition of fresh media 24 h post-transfection.
# P2X3 receptor = target: T2, P2X3 receptor (Homo sapiens, UniProt P56373); test: Calcium imaging of cultured human nociceptors exposed to lionfish venom; format: cell-based; conditions: AF-353 300 nM, 8-minute incubation; p<0.001 Fisher's exact test
# T2 construct: dorsal root ganglia were isolated from human organ donors and placed in culture; endogenous in cells; host or cells: primary sensory neurons cultured from human donor dorsal root ganglia
# T2 sequence (P56373 whole entry): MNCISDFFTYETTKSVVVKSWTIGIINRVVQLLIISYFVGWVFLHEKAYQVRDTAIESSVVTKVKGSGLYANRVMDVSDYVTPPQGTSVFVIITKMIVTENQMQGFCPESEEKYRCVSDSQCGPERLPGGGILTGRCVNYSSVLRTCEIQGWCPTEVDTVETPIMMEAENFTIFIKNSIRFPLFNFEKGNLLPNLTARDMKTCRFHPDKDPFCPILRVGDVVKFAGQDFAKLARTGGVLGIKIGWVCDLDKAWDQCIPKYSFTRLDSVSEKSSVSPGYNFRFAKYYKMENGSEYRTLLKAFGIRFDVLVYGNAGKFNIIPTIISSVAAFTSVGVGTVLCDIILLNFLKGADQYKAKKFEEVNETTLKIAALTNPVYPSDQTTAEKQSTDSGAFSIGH
# Procedure: To verify the efficacy of this compound in humans, dorsal root ganglia were isolated from human organ donors and placed in culture between 3 and 5 hours after cross-clamping the heart. Sensory neurons were cultured for at least 5 days before performing any experiments to allow for satellite cell detachment. For calcium imaging experiments, human nociceptors were exposed to the lionfish venom in the presence of the P2X3 receptor antagonist AF-353 (300 nM), which was introduced in the bath solution (in mM: NaCl 150, KCl 3, Glucose 10, CaCl2) 2, and MgCl2 1; in distilled water, buffered to a pH of 7.3). Cells were incubated with AF-353 for 8-minutes either after an initial application of lionfish venom or before any applications of the venom. Venom was applied in 2-second puffs with a picospritzer as in FIG. 2.
# P2X3 = target: T3, P2X3 (Mus musculus, UniProt Q3UR32); test: Spontaneous pain assay, intraplantar AF-353 before or after lionfish venom; format: in vivo, mice; conditions: AF-353 3 mM in 20 μL intraplantar 30 minutes prior or within 2 minutes after 66 μg venom; 1 hour
# T3 construct: from tissue; host or cells: living mice, hind paw (whole animal, behavioural read-out)
# Procedure: AF-353 was prepared in a stock solution of 300 mM in DMSO and diluted to 3 mM in physiological saline for at the time of experimentation. Mice were injected with AF-353 intraplantarly either 30 minutes prior to injection of lionfish venom, to determine whether the compound could be used as a prophylactic treatment against lionfish envenomations, or immediately (within 2 minutes) after injection of lionfish venom in the paw, in order to determine whether the compound could be used as a treatment after lionfish envenomations. During the experiment, mice were placed on a glass surface with a mirror placed underneath at a 45-degree angle and kept in round Plexi-glass restrainers. A video camera filmed the animals' spontaneous pain behaviour for an hour. The amount of time the mice spent licking their paws was quantified by two independent and blinded experimenters.
# Mice were injected with the vehicle (Veh) for AF-353 (DMSO) 30 minutes prior to injection of the Veh for the venom (physiological saline) (empty squares), venom (Vnm) followed by Veh (DMSO; black squares), AF-353 (AF, 3 mM in a total volume of 20 μL) followed by venom (light grey squares), or venom followed by AF-353 (dark grey squares). n=5 mice per group. The dose of venom injected was 66 μg of crude venom in a total volume of 20 μL (veh. saline). […] Stats: ***=P<0.001; **=P=0.009. Unpaired t test.
# TRPV1 [1] = target: T4, TRPV1 (Mus musculus, UniProt Q704Y3); format: cell-based, mice
# T4 sequence (Q704Y3 whole entry): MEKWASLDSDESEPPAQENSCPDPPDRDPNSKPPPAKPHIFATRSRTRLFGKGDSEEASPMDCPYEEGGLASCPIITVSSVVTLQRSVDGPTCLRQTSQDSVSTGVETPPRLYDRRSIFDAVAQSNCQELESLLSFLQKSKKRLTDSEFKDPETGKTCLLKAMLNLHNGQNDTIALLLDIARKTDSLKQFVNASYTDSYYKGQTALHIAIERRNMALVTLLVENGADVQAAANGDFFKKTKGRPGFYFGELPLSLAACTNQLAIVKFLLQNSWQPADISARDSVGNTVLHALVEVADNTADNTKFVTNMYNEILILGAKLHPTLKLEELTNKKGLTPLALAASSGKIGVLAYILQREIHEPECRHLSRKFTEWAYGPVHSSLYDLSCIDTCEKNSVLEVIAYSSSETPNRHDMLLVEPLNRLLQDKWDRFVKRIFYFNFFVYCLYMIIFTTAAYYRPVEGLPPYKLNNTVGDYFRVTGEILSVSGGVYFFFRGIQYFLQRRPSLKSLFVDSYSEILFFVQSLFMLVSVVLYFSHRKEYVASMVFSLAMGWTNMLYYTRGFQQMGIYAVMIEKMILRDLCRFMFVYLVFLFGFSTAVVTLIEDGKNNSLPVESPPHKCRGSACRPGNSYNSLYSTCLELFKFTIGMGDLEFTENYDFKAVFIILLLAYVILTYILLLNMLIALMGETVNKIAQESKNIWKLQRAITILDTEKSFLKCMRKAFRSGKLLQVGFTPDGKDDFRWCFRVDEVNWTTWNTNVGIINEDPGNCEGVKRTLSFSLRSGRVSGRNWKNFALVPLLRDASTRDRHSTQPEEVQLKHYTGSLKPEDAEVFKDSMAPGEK
# Procedure: To test the TRPV1 receptor antagonist, changes in intracellular calcium concentrations in single cells were recorded as changes in GCaMP6f fluorescence. Exposure to the antagonist (10 μM) and image analysis were performed in a manner similar to the bradykinin (BK) receptor antagonist described above. The TRPV1 receptor agonist capsaicin (1 μM) and lionfish venom were applied during 1 second over the imaging region.
# TRPV1 [2] = target: T4, TRPV1; format: in vivo, mice; conditions: 30 mg/kg intraperitoneal; 44 μg venom intraplantar; P=0.841 vs vehicle
# Procedure: Protein concentration in the venom extract was determined to be 2.2 μg/μL using the Bio-Rad DC assay. Mice (12-weeks old C57BL/6 males and females, The Jackson Laboratory) were placed in an observation chamber on a glass platform, under which a mirror was placed at a 45° angle so as to show the hind paw of the mouse to the recording videocamera. Once the mice were acclimatized to the chamber, they were taken out and injected in the ventral aspect of their left hind paw with a 20 μl solution of the crude or diluted venom (44 or 4.4 μg/20 μl). The venom was extracted in sterile physiological saline (0.9% NaCl) and the same vehicle was used for dilutions.
structure (smiles),measurement,setting,value
COc1cc(C(C)C)c(Oc2cnc(N)nc2N)cc1I [AF-353],venom-elicited intracellular calcium responses in cultured mouse nociceptors,P2X3 receptors,reversibly blocks
same,"α,β,Me-ATP-elicited calcium responses in cultured mouse nociceptors","P2X3 receptors; selective P2X3 receptor agonist α,β,Me-ATP",reversibly blocks
same,venom-induced calcium responses in human nociceptors,P2X3 receptor,do not display calcium responses
same,pain caused by lionfish venom in vivo (time licking injected paw),P2X3,effective in reducing or eliminating pain
CC(C)(C)c1ccc(/C=C/C(=O)Nc2ccc3c(c2)OCCO3)cc1 [AMG-9810],Proportion of cultured DRG neurons responding to capsaicin in the presence of AMG-9810,TRPV1 [1],0/65
same,effect on capsaicin-elicited rise in intracellular calcium (sample traces),TRPV1 [1],blocked response
same,proportion of cells (DRG neurons) responding to the venom in the presence of AMG-9810,"TRPV1 [1]; AMG-9810 10 μM, Fisher exact test P=0.322",30/32
same,venom-elicited spontaneous pain behavior over 1 hour after AMG-9810 pretreatment,TRPV1 [2],independent
COc1cc(CNC(=O)CCCC/C=C/C(C)C)ccc1O [capsaicin],Proportion of cultured DRG neurons responding to capsaicin alone,TRPV1 [1],45/65
